Values of other authors as cited in US9566312B2, “Cyclic peptides and use as medicines” (priority 2012, dated 2017).

What was measured:
[1] = system: HCV replicon; settings: cited from earlier work
[2] = system: hepatitis C virus; settings: patients, 1200 mg twice daily; cited from earlier work
[3] = system: HBV in HepG2215 cells; settings: cited from earlier work

## C=CC[C@@H]1/C=C(\C)C[C@H](C)C[C@H](OC)[C@H]2O[C@@](O)(C(=O)C(=O)N3CCCC[C@H]3C(=O)O[C@H](/C(C)=C/[C@@H]3CC[C@@H](O)[C@H](OC)C3)[C@H](C)[C@@H](O)CC1=O)[C@H](C)C[C@@H]2OC [FK506]
[1]
  effect on HCV replication: did not have significant effect

## C/C=C/C[C@@H](C)[C@@H](O)[C@H]1C(=O)N[C@@H](CC)C(=O)N(C)[C@H](C)C(=O)N(CC)[C@@H](C(C)C)C(=O)N[C@@H](C(C)C)C(=O)N(C)[C@@H](CC(C)C)C(=O)N[C@@H](C)C(=O)N[C@H](C)C(=O)N(C)[C@@H](CC(C)C)C(=O)N(C)[C@@H](CC(C)C)C(=O)N(C)[C@@H](C(C)C)C(=O)N1C [DEBIO-025]
[2]
  mean hepatitis C load: significantly decreased

## C/C=C/C[C@@H](C)[C@@H](O)[C@H]1C(=O)N[C@@H](CC)C(=O)N(C)CC(=O)N(C)[C@@H]([C@@H](C)CC)C(=O)N[C@@H](C(C)C)C(=O)N(C)[C@@H](CC(C)C)C(=O)N[C@@H](C)C(=O)N[C@H](C)C(=O)N(C)[C@@H](CC(C)C)C(=O)N(C)[C@@H](CC(C)C)C(=O)N(C)[C@@H](C(C)C)C(=O)N1C [NIM811]
[3]
  reduction of HBsAg secretion from cells compared with controls: about 50%

## C/C=C/C[C@@H](C)[C@@H](O)[C@H]1C(=O)N[C@@H](CC)C(=O)N(C)[C@H](C)C(=O)N(CC)[C@@H](C(C)C)C(=O)N[C@@H](C(C)C)C(=O)N(C)[C@@H](CC(C)C)C(=O)N[C@@H](C)C(=O)N[C@H](C)C(=O)N(C)[C@@H](CC(C)C)C(=O)N(C)[C@@H](CC(C)C)C(=O)N(C)[C@@H](C(C)C)C(=O)N1C [alisporivir]
[3]; 5.0 mcg/mL, 72 hours
  reduction in intracellular HBV DNA levels: 10 fold
[3]
  reduction of HBsAg secretion from cells compared with controls: about 50%
